Experimental data reported in US20080188680A1, “Process Improvement Using Solubility Characteristics” (priority 2005, published 2008).

Tests used:
[1] = Activity coefficient of diester in saturated methanol solution, transformed from the solubility data; format: physicochemical; parameters: key: γ = ideal mole-fraction solubility / actual mole-fraction solubility
Description: Solubility data can be compared to the ideal solubility. Two component solubility data (solute and solvent) at various temperatures can be easily calculated as a mole fraction of the solute in solution. The ratio of the mole fraction ideal solubility, xsolute ideal (calculated at the same temperature as the solubility data point) to each mole fraction solubility data point, xsolute actual is the activity coefficient, γsolute. These relationships are expressed mathematically, per equation (2)
In order to solve equation (3) for the activity coefficient, three experimental values are necessary: (i) the melting point of the solute, (ii) the heat of fusion of the solute in cal/g·mol and (iii) at least one value for the solubility of the specific solute in a specific solvent. Assuming the heat of fusion of the solute is constant over the range of temperatures, the relationship in equation (3) allows the mathematical transformation of the temperature and solubility data into an activity coefficient for the solute at each temperature. The terms in equation (3) are defined as follows: γsolute is the activity coefficient of the solute, xsolute is the mole fraction of the solute at a given temperature, T, in K; −ΔH^Fsolute is the heat of fusion in cal/g·mol of the solute, R is the ideal gas constant in cal/K·mol, T is the temperature of a given value for xsolute in K; and Tm(solute) is the melting temperature of the solute in K.
To interpret the solubility information, additional physical properties of diester were measured. The melting point was 124° C. (123-125° C.). The heat of fusion was 7422 cal/g·mole.
The solubility of diester, being a non-electrolyte, would obey the following thermodynamic relationship.
This relationship allows the weight % solubility versus temperature data to be mathematically transformed into an activity coefficient versus temperature data. The corresponding activity coefficient for each solubility data point is as follows: […]

[2] = Gravimetric solubility of diester in methanol (saturated solution); format: physicochemical
Description: The solubility of dimethyl-5-nitrophthalate (“diester”) in methanol was determined through the normal boiling of methanol, and presented in the following table:
Using glass pressure test tubes immersed in boiling water, an additional point for the solubility of diester at 100° C. was measured to be about 58 wt % diester.
Generally, the solubility was determined gravimetrically. A dilute slurry of diester and methanol was heated to a desired temperature. As needed, more diester solids were added to maintain a dilute slurry. The slurry was heated to a known temperature and stirred for approximately 15-30 minutes to assure the diester solids were equilibrated and the solution was saturated. Then, the stirring was stopped and the diester solids were allowed to settle. A sample of the supernatant liquid was obtained, the liquid was evaporated and the weight of the residual diester was measured. The weight of the residual diester solid was used to calculate the solubility of the diester solid in the methanol. This procedure was repeated for several different temperatures. Then, from the highest temperature, the procedure was repeated except the slurry was cooled to each sampling point and methanol was added instead of diester solids as necessary to maintain a dilute slurry. The difference in the solubility data sets between the heating data set and the cooling data set is an indication of how well equilibrium was obtained.

Activ Coef ([1]; 25.5 C): 36.3 | Activ Coef ([1]; 31.1 C): 33.7 | Activ Coef ([1]; 34.1 C): 32.4 | Activ Coef ([1]; 34.6 C): 32.1 | Activ Coef ([1]; 39.6 C): 30.1 | Activ Coef ([1]; 44.0 C): 28.4 | Activ Coef ([1]; 44.3 C): 28.3 | Activ Coef ([1]; 52.4 C): 25.3 | Activ Coef ([1]; 54.1 C): 24.7 | Activ Coef ([1]; 61.2 C): 21.9 | Activ Coef ([1]; 65.3 C): 20.4 | Activ Coef ([1]; 65.4 C): 20.5 | Activ Coef ([1]; 100.0 C): 3.5 | solubility ([2]; 25° C.): about 1 wt. % | wt % Diester (solubility in methanol) ([2]; methanol, 25.5 C): 1.0% wt % | wt % Diester (solubility in methanol) ([2]; methanol, 31.1 C): 1.2% wt % | wt % Diester (solubility in methanol) ([2]; methanol, 34.1 C): 1.4% wt % | wt % Diester (solubility in methanol) ([2]; methanol, 34.6 C): 1.5% wt % | wt % Diester (solubility in methanol) ([2]; methanol, 39.6 C): 1.9% wt % | wt % Diester (solubility in methanol) ([2]; methanol, 44.0 C): 2.3% wt % | wt % Diester (solubility in methanol) ([2]; methanol, 44.3 C): 2.3% wt % | wt % Diester (solubility in methanol) ([2]; methanol, 52.4 C): 3.5% wt % | wt % Diester (solubility in methanol) ([2]; methanol, 54.1 C): 3.7% wt % | wt % Diester (solubility in methanol) ([2]; methanol, 61.2 C): 5.7% wt % | wt % Diester (solubility in methanol) ([2]; methanol, 65.3 C): 7.0% wt % | wt % Diester (solubility in methanol) ([2]; methanol, 65.4 C): 7.0% wt % | wt % Diester (solubility in methanol) ([2]; methanol, 100 C, glass pressure test tubes in boiling water): 58.0% wt % | wt % Diester (solubility in methanol) ([2]; methanol, 100 C, glass pressure test tubes in boiling water, listed as diester): about 58 wt % | wt % Diester (solubility in methanol) ([2]; methanol, 100 C, glass pressure test tubes in boiling water, listed as dimethyl-5-nitro-isophthalate): about 58 wt % | maximum solubility obtained below the normal boiling point of methanol ([2]; methanol, below normal boiling point): 7 wt. % | concentration of diester solutions obtained ([2]; methanol, temperature above 100° C.): greater than 70 wt. %
SMILES: COC(=O)c1cc(C(=O)OC)cc([N+](=O)[O-])c1 [Diester, dimethyl-5-nitro-isophthalate]
